Assay results taken from publication PMC5011342, “A high throughput drug screening assay to identify compounds that promote oligodendrocyte differentiation using acutely dissociated and purified oligodendrocyte precursor cells” (BMC Research Notes, 2016).
Read-outs that look alike come from different tables or passages of the source.

How the values were obtained:
[1] = test system: acutely dissociated and purified rat OPCs; assay: Acute OL differentiation assay (MBP expression/cell, immunofluorescent image quantification); type: cell-based; conditions: sheet "All OLga data"; for activation at 0.4 µM / activation at 2 µM / activation at 10 µM / activation at 0.08 µM: Rattus norvegicus
In short: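 This acute differentiation assay used purified rat OPCs from postnatal day 6–7 pups, seeded into PDL/laminin-coated 96-well plates in differentiation medium lacking PDGF and FGF. Compounds were applied in quadruplicate after a 1–2 h preincubation at 37 °C, 10 % CO2, with 0.1 % DMSO negative and 40 ng/ml T3 positive controls in eight wells. After fixation on DIV4, anti-MBP immunofluorescence images yielded MBP expression/cell.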

expanded OPCs = assay: cells; conditions: for viability at 0.1 µM / viability at 1 µM / viability at 10 µM: Rattus norvegicus, 72 h
In short: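 Toxicity screen: compounds added at 0.1, 1 and 10 µM to PDGF-AA-expanded OPCs in 96-well plates, 3-day incubation at 37 °C, 10% CO2, then alamarBlue 1:10 for 4 h with fluorescence readout. Results set screening doses of 10/2, 2/0.4 or 0.4/0.08 µM.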

[2] = 0.4 uM test compound, relative to quetiapine, read-out: OL differentiation, 0.4 uM (% Quet)
[3] = 2 uM test compound, relative to quetiapine, read-out: OL differentiation, 2 uM (% Quet)
[4] = read-out: 0.1 µM (% DMSO), alamarBlue viability, NCC library compound at 0.1 µM, sheet "All Tox data"
[5] = read-out: 1 µM (% DMSO), alamarBlue viability, NCC library compound at 1 µM, sheet "All Tox data"
[6] = read-out: 10 µM (% DMSO), alamarBlue viability, NCC library compound at 10 µM, sheet "All Tox data"
[7] = test compound at 2 uM, NCC library screen, relative to quetiapine
[8] = alamarBlue viability, NCC library compound at 0.1 µM, sheet "All Tox data"
[9] = alamarBlue viability, NCC library compound at 1 µM, sheet "All Tox data"
[10] = alamarBlue viability, NCC library compound at 10 µM, sheet "All Tox data"
[11] = 10 uM test compound, relative to quetiapine, read-out: OL differentiation, 10 uM (% Quet)
[12] = read-out: 0.1 µM (% DMSO), alamarBlue viability of expanded OPCs, compound at 0.1 µM, sheet All Tox data
[13] = read-out: 1 µM (% DMSO), alamarBlue viability of expanded OPCs, compound at 1 µM, sheet All Tox data
[14] = read-out: 10 µM (% DMSO), alamarBlue viability of expanded OPCs, compound at 10 µM, sheet All Tox data
[15] = test compound at 2 uM, NCC library screen, relative to quetiapine, read-out: 2 uM (% Quet)
[16] = test compound at 10 uM, NCC library screen, relative to quetiapine, read-out: 10 uM (% Quet)
[17] = alamarBlue viability of expanded OPCs, compound at 0.1 µM, relative to DMSO control
[18] = alamarBlue viability of expanded OPCs, compound at 1 µM, relative to DMSO control
[19] = alamarBlue viability of expanded OPCs, compound at 10 µM, relative to DMSO control
[20] = test compound at 0.4 uM, NCC library screen, relative to quetiapine, read-out: 0.4 uM (% Quet)
[21] = test compound at 0.08 uM, NCC library screen, relative to quetiapine, read-out: 0.08 uM (% Quet)
[22] = test compound at 2 uM, MBP expression relative to quetiapine, NCC library screen, read-out: 2 uM (% Quet)
[23] = test compound at 10 uM, MBP expression relative to quetiapine, NCC library screen, read-out: 10 uM (% Quet)

SMILES	activation at 2 µM [1, 3] [%]	viability at 0.1 µM (expanded OPCs; [4]) [%]	viability at 1 µM (expanded OPCs; [5]) [%]	viability at 10 µM (expanded OPCs; [6]) [%]	activation at 10 µM [1, 11] [%]	viability at 0.1 µM (expanded OPCs; [12]) [%]	viability at 1 µM (expanded OPCs; [13]) [%]	viability at 10 µM (expanded OPCs; [14]) [%]	other results
COC(=O)C1=C(C)NC(C)=C(C(=O)OC(C)C)C1c1cccc2nonc12 (stereo not drawn) [Isradipine]	-6.1	89.4	80.5	45.6	–	–	–	–	activation at 0.4 µM [1, 2]: -7.2%
O=C(O)C[C@H](O)C[C@H](O)/C=C/c1c(C2CC2)nc2ccccc2c1-c1ccc(F)cc1 [Itavastain]	–	–	–	–	–	–	–	–	0.4 uM (% Quet) ([1]; test compound at 0.4 uM, NCC library screen, relative to quetiapine): -60.9 % Quet; 2 uM (% Quet) [1, 7]: -74.4 % Quet; 0.1 µM (% DMSO) (expanded OPCs; [8]): 114.3 % DMSO; 1 µM (% DMSO) (expanded OPCs; [9]): 70.7 % DMSO; 10 µM (% DMSO) (expanded OPCs; [10]): 19.8 % DMSO
COc1ccc(C(=O)NCc2ccc(OCCN(C)C)cc2)cc1OC [Itopride]	-2.3	112	97.5	87.1	2	–	–	–	–
CCC(C)n1ncn(-c2ccc(N3CCN(c4ccc(OCC5COC(Cn6cncn6)(c6ccc(Cl)cc6Cl)O5)cc4)CC3)cc2)c1=O (stereo not drawn) [Itraconazole]	–	–	–	–	–	86.1	29.2	26.2	activation at 0.08 µM ([1]; 0.08 uM test compound, relative to quetiapine, read-out: OL differentiation, 0.08 uM (% Quet)): 2.8%; activation at 0.4 µM [1, 2]: -174%
CN(CCO)CC(O)Cn1cnc2c1c(=O)n(C)c(=O)n2C (stereo not drawn) [Jupal]	–	–	–	–	–	–	–	–	2 uM (% Quet) [1, 7]: 0.8 % Quet; 10 uM (% Quet) ([1]; test compound at 10 uM, NCC library screen, relative to quetiapine): 6.5 % Quet; 0.1 µM (% DMSO) (expanded OPCs; [8]): 92.2 % DMSO; 1 µM (% DMSO) (expanded OPCs; [9]): 91.0 % DMSO; 10 µM (% DMSO) (expanded OPCs; [10]): 92.4 % DMSO
CC(=O)N1CCN(c2ccc(OCC3COC(Cn4ccnc4)(c4ccc(Cl)cc4Cl)O3)cc2)CC1 (stereo not drawn) [Ketoconazole]	16.5	–	–	–	-67.7	98.1	126	109	–
CC(C(=O)O)c1cccc(C(=O)c2ccccc2)c1 (stereo not drawn) [Ketoprofen]	–	–	–	–	–	–	–	–	activation at 2 µM [1, 15]: 0.75%; activation at 10 µM [1, 16]: -29.2%; 0.1 µM (% DMSO) (expanded OPCs; [17]): 90.4 % DMSO; 1 µM (% DMSO) (expanded OPCs; [18]): 89.7 % DMSO; 10 µM (% DMSO) (expanded OPCs; [19]): 95.0 % DMSO
O=C(c1ccccc1)c1ccc2n1CCC2C(=O)O (stereo not drawn) [Ketorolac]	–	97.7	102	103	–	–	–	–	activation at 2 µM [1, 15]: 16.3%; activation at 10 µM [1, 16]: -1.3%
CN1CCC(=C2c3ccccc3CC(=O)c3sccc32)CC1 [Ketotifen]	–	85.1	72.7	36.9	–	–	–	–	activation at 0.4 µM [1, 20]: -11.2%; activation at 2 µM [1, 15]: 0.04%
[H]/N=C(/NC)NCCC[C@H](N)C(=O)O [L-NMMA]	3	–	–	–	7.7	84.1	92.4	93	–
CCCc1c(OCCCCc2nnn[nH]2)ccc(C(C)=O)c1O [LY 171883]	-33.3	–	–	–	-5.4	79.7	81.3	86.1	–
CC(CCc1ccccc1)NCC(O)c1ccc(O)c(C(N)=O)c1 (stereo not drawn) [Labetalol]	–	92.7	79.2	47.3	–	–	–	–	activation at 0.4 µM [1, 20]: -5.2%; activation at 2 µM [1, 15]: -15.3%
CCOC(=O)C1=C(C)NC(C)=C(C(=O)OCC)C1c1ccccc1/C=C/C(=O)OC(C)(C)C [Lacidipine]	–	64.4	55.3	8.7	–	–	–	–	activation at 0.08 µM [1, 21]: -1.1%; activation at 0.4 µM [1, 20]: -11.2%
Nc1ccn([C@@H]2CS[C@H](CO)O2)c(=O)n1 [Lamivudine]	-2.4	–	–	–	-27.9	87.3	96	113	activation at 2 µM [1, 22]: 2.9%; activation at 10 µM [1, 23]: -9.8%; 0.1 µM (% DMSO) (expanded OPCs; [17]): 94.3 % DMSO; 1 µM (% DMSO) (expanded OPCs; [18]): 88.1 % DMSO; 10 µM (% DMSO) (expanded OPCs; [19]): 79.4 % DMSO
Nc1nnc(-c2cccc(Cl)c2Cl)c(N)n1 [Lamotrigine]	-14.6	–	–	–	-8.7	94.8	104	99.5	–
Cc1c(OCC(F)(F)F)ccnc1C[S+]([O-])c1nc2ccccc2[nH]1 (stereo not drawn) [Lansoprazole]	–	94.2	86.3	99.9	–	–	–	–	activation at 2 µM [1, 15]: -3.1%; activation at 10 µM [1, 16]: -72%
CC(C)OC(=O)CCC/C=C\C[C@@H]1[C@@H](CC[C@@H](O)CCc2ccccc2)[C@H](O)C[C@@H]1O [Latanoprost]	-37.3	–	–	–	-143	85.2	91.5	81.4	–
C#C[C@]1(O)CC[C@H]2[C@@H]3CCC4=CC(=O)CC[C@@H]4[C@H]3CC[C@@]21CC [Levonorgestrel]	7.5	–	–	–	-8.6	97.5	88	91.5	–
CN1CC[C@]23CCCC[C@H]2[C@H]1Cc1ccc(O)cc13 [Levorphanol]	-6.9	–	–	–	17	77.4	83.4	74	–
CCN(CC)CC(=O)Nc1c(C)cccc1C [Lidocaine]	-0.03	–	–	–	17.6	84.8	86	85.5	–
CCC[C@@H]1C[C@@H](C(=O)N[C@@H]([C@H]2O[C@H](SC)[C@H](O)[C@@H](O)[C@H]2O)[C@@H](C)O)N(C)C1 [Lincomycin]	–	–	–	–	–	–	–	–	activation at 2 µM [1, 22]: 12.6%; activation at 10 µM [1, 23]: -2.9%; 0.1 µM (% DMSO) (expanded OPCs; [17]): 93.6 % DMSO; 1 µM (% DMSO) (expanded OPCs; [18]): 94.1 % DMSO; 10 µM (% DMSO) (expanded OPCs; [19]): 87.7 % DMSO
O=C1N(c2ccccc2)c2ccccc2C1(Cc1ccncc1)Cc1ccncc1 [Linopirdine]	–	90.7	94.5	86.2	–	–	–	–	activation at 2 µM [1, 15]: -7.9%; activation at 10 µM [1, 16]: -12.7%
CN1[C@@H](CC(=O)c2ccccc2)CCC[C@H]1C[C@H](O)c1ccccc1 [Lobeline]	-5	96.9	89.9	64.3	0.65	–	–	–	–
CN(CCCN1c2ccccc2CCc2ccccc21)CC(=O)c1ccc(Cl)cc1 [Lofepramine]	-3.7	–	–	–	–	97.9	79.6	47.1	activation at 0.4 µM [1, 2]: 1.3%
COc1ccc(CN2CCN(C(c3ccc(F)cc3)c3ccc(F)cc3)CC2)c(OC)c1OC [Lomerizine]	-3.9	92.5	58.5	11	–	–	–	–	activation at 0.4 µM [1, 2]: 0.09%
CN(C)C(=O)C(CCN1CCC(O)(c2ccc(Cl)cc2)CC1)(c1ccccc1)c1ccccc1 [Loperamide]	–	–	–	–	–	–	–	–	activation at 0.08 µM [1, 21]: -0.19%; activation at 0.4 µM [1, 20]: -17.5%; 0.1 µM (% DMSO) (expanded OPCs; [17]): 70.2 % DMSO; 1 µM (% DMSO) (expanded OPCs; [18]): 40.0 % DMSO; 10 µM (% DMSO) (expanded OPCs; [19]): 11.4 % DMSO
CCOC(=O)N1CCC(=C2c3ccc(Cl)cc3CCc3cccnc32)CC1 [Loratadine]	-36.8	–	–	–	–	90.8	77.7	13.9	activation at 0.4 µM [1, 2]: 5.6%
O=C1Nc2ccc(Cl)cc2C(c2ccccc2Cl)=NC1O (stereo not drawn) [Lorazepam]	–	90.5	81.6	71.2	–	–	–	–	activation at 2 µM [1, 15]: -21.5%; activation at 10 µM [1, 16]: -31.2%
CCCCc1nc(Cl)c(CO)n1Cc1ccc(-c2ccccc2-c2nn[nH]n2)cc1 [Losartan]	5.2	–	–	–	-7.3	97.6	91.6	102	–
